Results: patent US8114393B2, “Methods and compositions for phosphate binding” (Wisconsin Alumni Research Foundation, priority 2005, dated 2012)

What was measured:
[1] = system: Intestinal Phosphate Absorption; assay: Intestinal phosphate absorption: oral 33P dose after gavage of phosphate binder; format: in vivo, rats; conditions: 14.4 mg Renagel or 10 mg DAB-8 as acetate or citrate; 10 mM KH2PO4; 60 min
Experimental: Animals. Male Sprague-Dawley rats (Harlan Sprague-Dawley, Madison, Wis.) weighing approximately 120 grams were used in all experiments.
In experiments to measure ^33P absorption, the rats were fed a laboratory chow diet (Lab Diet 5012, Richmond, Ind.) containing 1% calcium and 0.7% phosphorus ad libitum for less than one week prior to the experiment.
Intestinal Phosphate Absorption. Following an overnight fast, rats were administered 0.5 mL water or an oral phosphate binder dissolved in water via gastric gavage. A second dose of 0.5 mL containing 3 μCi ^33P (as H3PO4, specific activity 155.8 Ci/mg, New England Nuclear/Perkin Elmer, Boston, Mass.) in a 10, 50, or 100 mM KH2PO4 buffer at pH 7.4 was immediately administered via gastric gavage. Rats were killed by CO2 asphyxiation immediately or 60 minutes after the oral dose. The rats killed immediately (labeled “0 min control” in figures) were used to determine if the oral ^33P dose was properly administered and completely recovered.
Blood was collected via heart puncture and centrifuged at 1500×g for 15 minutes at 22° C. to yield serum. A suture was tied to the cranial end of the esophagus to contain liquid inside the stomach. The entire digestive tract was then removed and allowed to dissolve for several days in concentrated HNO3 (approximately 1 mL HNO3 per gram tissue). The exact volume of the dissolved digestive tract was determined by diluting the dissolved tissues to equal volumes with water.
The amount of radioactivity in total body serum and total volume of dissolved tissue was determined following liquid scintillation counting of 50 μL aliquots in triplicate (Tri-Carb Liquid Scintillation Analyzer, Perkin-Elmer/Packard, Boston, Mass.). Total body serum was estimated to be 40 mL serum/kg body weight. (Hawk T et al., 1999, Formulary for laboratory animals, Ames, Iowa: Iowa State University Press.)
Statistical analysis. Data are presented as means±standard error of the means (SEM). Treatment groups were compared by a fully factorial analysis of variance (ANOVA) and means were subjected to Tukey, Scheffe, and Fisher's Least-Significant-Difference (LSD) tests (Systat 5.2.1, Systat Software, Inc., Point Richmond, Calif.). Differences were considered significant if at least two of the tests detected significance with a p-value <0.05, unless specified otherwise.
Materials and Methods. The relevant materials and methods were the same as set forth above except that instead of using “0.5 mL of water or 39.5 mg calcium acetate, 14.4 mg RENAGEL, or up to 132.8 mg of test dendrimer,” the following was used “0.5 mL of water, 14.4 mg RENAGEL or 10 mg DAB-8 as the hydroacetate or hydrocitrate form dissolved in water.”

[2] = system: intestinal phosphorus absorption; assay: Fecal phosphorus content, increasing dietary levels of DAB-8 hydroacetate for three weeks; format: in vivo, rats
Excerpt: Materials and Methods. Young male Sprague-Dawley rats weighing approximately 90 g were fed a purified diet containing 0.47% calcium and 0.2% inorganic phosphorus, solidified with molten agar, for 5 days. After this acclimation period, the rats were divided into 5 groups by body weight. One group remained on the control diet while the other 4 groups were fed diets containing increasing levels of DAB-8 in the hydroacetate salt form (0.09 to 0.7%). After 1, 2 and 3 weeks on the diets, the rats were moved to metabolic caging and 24 to 48 hour fecal collections were obtained. The feces were dried then ashed in a muffle oven at 700° C. for 24 hours. The resulting ash was dissolved in 6N HCl and the phosphorus content was measured using an in-house colorimetric assay.
Data are expressed as means±SEM. Data were subjected to analysis of variance (ANOVA), and group means compared using Tukey, Scheffe and Fisher's LSD test.
Young rats were either control diet (“0”), or the same diet containing one of four levels of DAB-8 as the hydroacetate for three weeks. Feces were collected from the rats using metabolic housing for 24 to 48 hours at the end of the first (week 1), second (week 2) or third (week 3) weeks. Feces was dried, then ashed in a muffle oven. Resulting ash was dissolved in 6N HCl. Phosphorus content was determined using an in-house colorimetric assay. *Indicates significant difference from control diet with a p-value of […].

Polypropylenimine octaamine Dendrimer decahydroacetate [DAB-8 as acetate]
33P in the serum compared with vehicle pretreatment (FIG. 26) [1]: significantly less | 33P retained in the gut compared with vehicle pretreatment (FIG. 25) [1]: significantly more | fecal phosphorus content versus control diet, first 2 weeks on the diet ([2]; all four levels of the phosphate binder (0.09 to 0.7%)): significant increase | fecal phosphorus output ([2]; daily consumption, 0.09 to 0.7% of diet): dose-dependent increase | dietary phosphorus absorption in vivo ([2]; inferred from fecal phosphorus, 0.09 to 0.7% of diet): dose-dependent reduction | fecal phosphorus content versus control diet, week 3 ([2]; only the highest dietary level): retains significance
